In patent US20250289786A1, “CHLORINATED MONOCARBONYL CURCUMIN COMPOUNDS, PREPARATION METHOD, AND APPLICATION” (Southwest Medical University, priority 2024, published 2025):

What was measured:
[1] = tested on: CUMS depression model mice; assay: Forced swimming test in CUMS depression model mice; type: in vivo, C57BL/6J mice; conditions: for forced swimming test, depressive symptoms / immobility time: 14th day, in words; for immobility time in the forced swimming test: 28 days
Excerpt: (§1) After one week of adaptive feeding, the newly purchased mice were divided into a blank group and CUMS model group. The mice in the blank group were not subjected to behavioral intervention and were fed normally. Mice in the model group were given 1-2 unpredictable behavioral stimuli every day. […] When the same stimulation is continuous, the stimulation method is changed to ensure that the same stimulation is not continuous, and the model construction period is 42 days.

[2] = tested on: CUMS depression model mice; assay: Open field test in CUMS depression model mice; type: in vivo, C57BL/6J mice; conditions: 28 days, model 327.22±161.39 cm
Excerpt: as §1

[3] = tested on: PC12 cells; assay: Inhibition of H2O2-induced oxidative damage in PC12 cells; type: cell-based, rat
Experimental: After 24 hours of incubation in the incubator, the relative proliferation rates of the cells were calculated according to the method under Section 2.1.

[4] = tested on: Nrf2, HO-1, BDNF, and TrkB in the hippocampus; assay: Western blot of hippocampal proteins in CUMS depression model mice; type: in vivo; conditions: low dose, in words
[5] = Solubility detection of CAK01-CAK07; type: physicochemical
Excerpt: The chlorinated monocarbonyl curcumin compounds CAK01-CAK07 prepared under the conditions of Example 1 were taken for nuclear magnetic resonance, mass spectrometry, solubility, and melting point detection.

[6] = tested on: CUMS depression model mice; assay: Sucrose preference test in CUMS depression model mice; type: in vivo, C57BL/6J mice
Excerpt: as §1

For COc1cc(/C=C2\CNC/C(=C\c3cc(Cl)c(O)c(OC)c3)C2=O)cc(Cl)c1O [CAK06, 3,5-bis ((E)-3-chloro-4-hydroxy-5-methoxybenzylidene) piperidin-4-one], the “forced swimming test, depressive symptoms / immobility time” value ([1]; 10 mg/kg oral once a day) was “significant reduction in immobility time”, the “immobility time in the forced swimming test” value ([1]; 10 mg/kg oral once a day) was 114.86 ± 84.07 s and the “forced swimming test, depressive symptoms / immobility time” value ([1]; 20 mg/kg oral once a day) was “stronger antidepressant effect”. The “immobility time in the forced swimming test” value ([1]; 20 mg/kg oral once a day) was 54.44 ± 53.38 s, the “overall activity distance in the open field test” value ([2]; 10 mg/kg oral once a day) was 868.90±280.97 cm and the “overall activity distance in the open field test” value ([2]; 20 mg/kg oral once a day) was 1336.66±264.87 cm. For the same molecule, the cell proliferation rate ([3]; 60 μM drug with 585.8 μM H2O2, 24 h) was 73.91±0.69%, the “effect on survival of H2O2-damaged PC12 cells” value ([3]; 3.75-60 μM drug, 24 h, in words) was “time-dependent and concentration-dependent cell protection” and the “expression of antioxidant-related proteins Nrf2 and HO-1” value [4] was “better expression than the Flu group”. The solubility [5] was 171.77 mg/100 g, the sucrose preference rate ([6]; 10 mg/kg oral once a day, 14th day, in words) was “failed to significantly increase the sucrose preference rate” and the sucrose preference rate ([6]; 10 mg/kg oral once a day, 28 days, model 61.36±2.18%) was 70.62±2.33%. The sucrose preference rate ([6]; 20 mg/kg oral once a day, 14th day, in words) was “significant increase” and the sucrose preference rate ([6]; 20 mg/kg oral once a day, 28 days, model 61.36±2.18%) was 77.42±2.77%.
